Reference: article PMC2728345 (Toxicology and applied pharmacology, 2009)
Numbering of substitutions follows the chain as printed. “Also recorded” adds a separate entry of the source. Like-named read-outs stand apart in the source and are kept apart here.

What was measured:
carboxylesterase HCE1 = target: T1, carboxylesterase HCE1 (Homo sapiens, UniProt P23141); assay: Hydrolysis of pyrethroids by recombinant HCE1; type: in vitro ADME; conditions: recombinant HCE1 vs HCE2 lysates, Tris-HCl pH 7.4
T1 sequence (P23141 18-567): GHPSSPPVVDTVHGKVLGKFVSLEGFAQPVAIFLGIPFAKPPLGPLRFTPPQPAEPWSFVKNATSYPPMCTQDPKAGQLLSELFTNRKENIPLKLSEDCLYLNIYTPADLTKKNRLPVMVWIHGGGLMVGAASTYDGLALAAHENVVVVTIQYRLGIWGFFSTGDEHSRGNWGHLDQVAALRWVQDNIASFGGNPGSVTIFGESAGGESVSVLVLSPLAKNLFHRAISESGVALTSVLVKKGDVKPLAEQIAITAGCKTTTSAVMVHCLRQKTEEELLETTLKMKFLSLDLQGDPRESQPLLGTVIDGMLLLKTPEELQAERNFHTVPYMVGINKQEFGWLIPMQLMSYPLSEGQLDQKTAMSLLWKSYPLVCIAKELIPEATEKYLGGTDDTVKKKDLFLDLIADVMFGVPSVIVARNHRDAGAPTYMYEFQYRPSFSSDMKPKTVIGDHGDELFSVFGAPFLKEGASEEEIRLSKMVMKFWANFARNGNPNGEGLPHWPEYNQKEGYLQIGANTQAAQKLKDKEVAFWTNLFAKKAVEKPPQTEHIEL

HCE2 = HCE2 expression in human primary hepatocytes; type: cell-based; conditions: 10 µM, 24 h
rats or mice = conditions: in vivo, po; cited from earlier work
CYP3A4 = CYP3A4 expression in human primary hepatocytes; conditions: 10 µM, 24 h
human PXR [1] = target: T2, human PXR (Homo sapiens, UniProt O75469); assay: Activation of human PXR in stable line hPXR-HRE; conditions: 10 µM, 24 h, ratio over DMSO
T2 sequence (O75469 1-434): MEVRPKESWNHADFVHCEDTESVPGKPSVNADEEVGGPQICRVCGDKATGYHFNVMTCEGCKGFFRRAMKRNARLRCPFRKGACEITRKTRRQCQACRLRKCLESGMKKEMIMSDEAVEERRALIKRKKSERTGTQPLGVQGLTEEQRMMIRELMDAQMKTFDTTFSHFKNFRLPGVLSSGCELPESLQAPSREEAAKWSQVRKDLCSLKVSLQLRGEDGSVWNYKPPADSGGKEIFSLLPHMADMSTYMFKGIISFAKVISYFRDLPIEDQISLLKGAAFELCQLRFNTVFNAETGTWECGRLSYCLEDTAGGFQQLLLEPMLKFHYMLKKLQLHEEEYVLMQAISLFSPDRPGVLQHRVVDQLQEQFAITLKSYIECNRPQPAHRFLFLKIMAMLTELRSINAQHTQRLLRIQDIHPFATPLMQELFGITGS

human PXR [2] = target: T2, human PXR; assay: Activation of human PXR in hPXR-HRE cells transfected with HCE1, HCE2 or vector; conditions: 10 µM; for effect of carboxylesterase cotransfection on PXR activation: hPXR-HRE cells transfected with HCE1 or HCE2 vs vector; for decrease in PXR activation, HCE1 versus HCE2 cotransfection: hPXR-HRE cells
human PXR variant S208F [3] = target: T3, human PXR variant S208F (Homo sapiens, UniProt O75469, S208F); conditions: HepG2 cotransfection, 10 µM, 24 h; words: compared with wild-type PXR
T3 sequence (O75469 1-434 S208F): T2 sequence (O75469 1-434) with S208F

human PXR variant L412I = target: T4, human PXR variant L412I (Homo sapiens, UniProt O75469, L412I); conditions: HepG2 cotransfection, 10 µM, 24 h
T4 sequence (O75469 1-434 L412I): T2 sequence (O75469 1-434) with L412I

[4] = 50 µg protein, pyrethroid 200 µM mixed with equal volume, Tris-HCl pH 7.4, 37°C
carboxylesterase HCE2 [5] = target: T5, carboxylesterase HCE2 (Homo sapiens, UniProt O00748); assay: Hydrolysis of pyrethroids by recombinant HCE2; type: in vitro ADME; conditions: recombinant HCE2 vs HCE1 lysates, Tris-HCl pH 7.4
human PXR variant S208F [6] = target: T3, human PXR variant S208F
carboxylesterase HCE2 [7] = target: T5, carboxylesterase HCE2; conditions: Tris-HCl buffer pH 8.0; ref Nishi et al. (2006); cited from earlier work

T5 sequence (O00748 27-559): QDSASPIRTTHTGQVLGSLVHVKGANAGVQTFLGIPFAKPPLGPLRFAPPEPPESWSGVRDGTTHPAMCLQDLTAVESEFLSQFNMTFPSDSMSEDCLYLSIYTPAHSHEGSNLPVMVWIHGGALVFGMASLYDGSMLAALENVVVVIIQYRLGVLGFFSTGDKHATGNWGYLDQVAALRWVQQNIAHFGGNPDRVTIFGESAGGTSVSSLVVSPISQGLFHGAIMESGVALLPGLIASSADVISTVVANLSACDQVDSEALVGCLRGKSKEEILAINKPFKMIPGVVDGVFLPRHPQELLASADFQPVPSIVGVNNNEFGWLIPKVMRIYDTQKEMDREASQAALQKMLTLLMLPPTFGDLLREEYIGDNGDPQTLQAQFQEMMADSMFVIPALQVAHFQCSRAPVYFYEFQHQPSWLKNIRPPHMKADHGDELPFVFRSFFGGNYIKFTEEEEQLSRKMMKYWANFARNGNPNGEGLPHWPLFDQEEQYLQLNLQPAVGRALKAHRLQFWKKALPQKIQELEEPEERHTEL

Compound	preference for hydrolysis by HCE1 over HCE2 (words) (carboxylesterase HCE1)	HCE2 protein (Western blotting) (HCE2)	LD50 (rats or mice) [mg/kg]	CYP3A4 protein (Western blotting) (CYP3A4)	activation of human PXR (human PXR [1])	effect of carboxylesterase cotransfection on PXR activation (human PXR [2])	decrease in PXR activation, HCE1 versus HCE2 cotransfection (human PXR [2])	activation of PXR variant S208F (human PXR variant S208F [3])	activation of PXR variant L412I compared with wild-type PXR (human PXR variant L412I)	hydrolysis by pooled human liver microsomes (rate group / extent, in words) [4]	preference for hydrolysis by HCE2 over HCE1 (carboxylesterase HCE2 [5])	activation of PXR variant S208F (human PXR variant S208F [6]) [fold]	selective hydrolysis HCE2 vs HCE1 (literature) (carboxylesterase HCE2 [7])
CC1(C)[C@H](C(=O)O[C@H](C#N)c2cccc(Oc3ccccc3)c2)[C@@H]1/C=C(\Cl)C(F)(F)F (racemic) [lambda-Cyhalothrin]	HCE1 preferably hydrolyzed; also recorded: much more active than HCE2	but not HCE1 or HCE2 protein	56	significant increase	stronger activator of human PXR	markedly decreased	much more decreases	no differences	less extent than the wild-type PXR	moderate rate			
CC1(C)C(C=C(Cl)Cl)C1C(=O)OC(C#N)c1ccc(F)c(Oc2ccccc2)c1 (stereo not shown) [Baythroid]										moderate rate	HCE2 preferably hydrolyzed	10.6	
CC1(C)[C@H](C(=O)O[C@H](C#N)c2cccc(Oc3ccccc3)c2)[C@@H]1C=C(Br)Br [Deltamethrin]	much more active than HCE2; also recorded: preferably hydrolyzed by HCE1		535			markedly decreased	much more decreases			high rate			better substrate of HCE2
